In US12673946B2, “Pyrimidin-4(3H)-one derivatives as TRPV4 antagonists” (RaQualia Pharma Inc., priority 2020, dated 2026) one finds IC50 data, which are given here for 50 compounds.

The target of this assay is T1, human TRPV4 (Homo sapiens, UniProt Q9HBA0).
T1 construct: host or cells: tetracycline-inducible Flp-In T-REx 293 cells
Briefly: Hypotonicity-induced Ca2+ influx (Fluo-4, FDSS). In kind it is cell-based. A digest of the protocol: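 Flp-In T-REx 293 cells with tetracycline-induced human TRPV4, loaded with Fluo-4 for 60 min at 25 °C. Compound added 5 min before hypotonic mannitol/CaCl2 solution. Ca2+ signal recorded for 4.5 min on FDSS.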

[1] abbreviates: Flp-In T-REx 293 cells expressing human TRPV4, examples listed under heading 'Human IC50<50 nM'.
[2] abbreviates: Flp-In T-REx 293 cells stably expressing human TRPV4, compounds listed by potency bin (<10 nM Tables 96-1/96-2, <3 nM Table 97).

T1 sequence (Q9HBA0 whole entry): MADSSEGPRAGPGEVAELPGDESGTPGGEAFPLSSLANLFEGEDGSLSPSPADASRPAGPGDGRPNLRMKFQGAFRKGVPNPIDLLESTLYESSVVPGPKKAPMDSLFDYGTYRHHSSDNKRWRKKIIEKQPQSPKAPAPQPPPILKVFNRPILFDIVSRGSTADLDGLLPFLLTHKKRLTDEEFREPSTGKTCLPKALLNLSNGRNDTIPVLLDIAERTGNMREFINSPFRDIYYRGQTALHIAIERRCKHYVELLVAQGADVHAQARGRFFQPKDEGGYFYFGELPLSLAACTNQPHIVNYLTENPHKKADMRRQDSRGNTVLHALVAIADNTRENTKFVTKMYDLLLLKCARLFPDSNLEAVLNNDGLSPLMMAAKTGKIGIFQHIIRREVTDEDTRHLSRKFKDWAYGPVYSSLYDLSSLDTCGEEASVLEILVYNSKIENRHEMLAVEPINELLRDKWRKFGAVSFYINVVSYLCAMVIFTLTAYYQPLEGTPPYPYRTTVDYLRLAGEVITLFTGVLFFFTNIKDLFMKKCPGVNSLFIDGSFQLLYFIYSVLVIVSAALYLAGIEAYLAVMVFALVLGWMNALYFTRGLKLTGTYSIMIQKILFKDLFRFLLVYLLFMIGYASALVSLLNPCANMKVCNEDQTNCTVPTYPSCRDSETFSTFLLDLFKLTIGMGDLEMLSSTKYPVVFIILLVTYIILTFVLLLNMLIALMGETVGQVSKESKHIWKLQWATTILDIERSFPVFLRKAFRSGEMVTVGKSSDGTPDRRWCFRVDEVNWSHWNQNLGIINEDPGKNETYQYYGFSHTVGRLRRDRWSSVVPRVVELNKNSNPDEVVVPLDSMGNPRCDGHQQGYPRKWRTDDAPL

For `O=C([C@H](O)c1cccc(-c2ccc3c(c2)OCCCO3)c1)N1CCc2nc(C3(c4ccccc4)CC3)[nH]c(=O)c2C1` [44-106], under setting [1], the 50% inhibitory concentration (IC50) was < 0.05 µM. For `O=C([C@H](O)c1cccc(-c2ccc(OCc3ccccc3)cc2)c1)N1CCc2nc(C3(c4ccccc4)CC3)[nH]c(=O)c2C1` [44-107], the IC50 is, setting by setting: under setting [1], < 0.05 µM; under setting [2], < 0.01 µM. For `O=C([C@H](O)c1cccc(-c2cc(Cl)ccc2Cl)c1)N1CCc2nc(C3(c4ccccc4)CC3)[nH]c(=O)c2C1` [44-108], in that order: < 0.05 µM and < 0.01 µM. With `O=C([C@H](O)c1cccc(-c2cccc(Cl)c2Cl)c1)N1CCc2nc(C3(c4ccccc4)CC3)[nH]c(=O)c2C1` [44-109], under setting [1], the IC50 is < 0.05 µM.

As for `N#Cc1cc(Cl)cc(-c2cccc([C@@H](O)C(=O)N3CCc4nc(C5(c6ccccc6)CC5)[nH]c(=O)c4C3)c2)c1` [44-110], the IC50 is < 0.05 µM under setting [1] and < 0.003 µM under setting [2]. With `O=C([C@H](O)c1cccc(-c2ccccc2OCc2ccccc2)c1)N1CCc2nc(C3(c4ccccc4)CC3)[nH]c(=O)c2C1` [44-111], the 50% inhibitory concentration (IC50) under setting [1] was < 0.05 µM. As for `O=C([C@H](O)c1cccc(-c2coc3ccccc23)c1)N1CCc2nc(C3(c4ccccc4)CC3)[nH]c(=O)c2C1` [44-112], the IC50 is, setting by setting: under setting [1], < 0.05 µM; under setting [2], < 0.01 µM.

Take `Cc1cc(C)cc(-c2cccc([C@@H](O)C(=O)N3CCc4nc(C5(c6ccccc6)CC5)[nH]c(=O)c4C3)c2)c1` [44-113]: under setting [1], the IC50 is < 0.05 µM. Take `Cc1ccc(-c2cccc([C@@H](O)C(=O)N3CCc4nc(C5(c6ccccc6)CC5)[nH]c(=O)c4C3)c2)cc1C` [44-114]: under setting [1], the IC50 is < 0.05 µM. Consider `CC(C)c1cccc(-c2cccc([C@@H](O)C(=O)N3CCc4nc(C5(c6ccccc6)CC5)[nH]c(=O)c4C3)c2)c1` [44-115], for which the IC50 under setting [1] is < 0.05 µM and the concentration for half-maximal inhibition (IC50) under setting [2] is < 0.01 µM. Regarding `O=C([C@H](O)c1cccc(-c2ccc3c(c2)CCO3)c1)N1CCc2nc(C3(c4ccccc4)CC3)[nH]c(=O)c2C1` [44-116], under setting [1], the half-inhibitory concentration (IC50) is < 0.05 µM.

Regarding `Cc1cc(-c2cccc([C@@H](O)C(=O)N3CCc4nc(C5(c6ccccc6)CC5)[nH]c(=O)c4C3)c2)ccc1Cl` [44-117], the half-maximal inhibitory concentration (IC50) under setting [1] is < 0.05 µM and the half-inhibitory concentration (IC50) under setting [2] was < 0.01 µM. On to `O=C(C(O)c1cccc(-c2ccc(-c3ccc(Cl)cc3)cc2)c1)N1CCc2nc(C3(c4ccccc4)CC3)[nH]c(=O)c2C1` (stereo not shown) [44-118], for which the IC50 is < 0.05 µM under setting [1] and < 0.01 µM under setting [2]. Take `O=C(C(O)c1cccc(-c2cccc(OCc3ccccc3)c2)c1)N1CCc2nc(C3(c4ccccc4)CC3)[nH]c(=O)c2C1` (stereo not shown) [44-119]: the half-inhibitory concentration (IC50) is, setting by setting: under setting [1], < 0.05 µM; under setting [2], < 0.01 µM. Taken in the same sequence, the figures for `O=C([C@H](O)c1cccc(-c2ccc(F)c(Cl)c2)c1)N1CCc2nc(C3(c4cccc(Cl)c4)CC3)[nH]c(=O)c2C1` [45-1] were < 0.05 µM and < 0.003 µM. For `CC(C)(C)c1cccc(-c2cccc([C@@H](O)C(=O)N3CCc4nc(C5(c6cccc(Cl)c6)CC5)[nH]c(=O)c4C3)c2)c1` [45-2], in that order: < 0.05 µM and < 0.01 µM. For `O=C([C@H](O)c1cccc(-c2ccc(Cl)c(C(F)(F)F)c2)c1)N1CCc2nc(C3(c4cccc(Cl)c4)CC3)[nH]c(=O)c2C1` [45-3], in that order: < 0.05 µM and < 0.01 µM.

Turning to `O=C([C@H](O)c1cccc(-c2cccc(C(F)(F)F)c2)c1)N1CCc2nc(C3(c4cccc(Cl)c4)CC3)[nH]c(=O)c2C1` [45-4], the half-inhibitory concentration (IC50) under setting [1] is < 0.05 µM and the IC50 under setting [2] was < 0.01 µM. Taken in the same sequence, the figures for `N#Cc1cc(Cl)cc(-c2cccc([C@@H](O)C(=O)N3CCc4nc(C5(c6cccc(Cl)c6)CC5)[nH]c(=O)c4C3)c2)c1` [45-5] were < 0.05 µM and < 0.003 µM. Taken in the same sequence, the figures for `O=C([C@H](O)c1cccc(-c2cccc(C(F)(F)F)n2)c1)N1CCc2nc(C3(c4cccc(Cl)c4)CC3)[nH]c(=O)c2C1` [45-6] were < 0.05 µM and < 0.003 µM. Taken in the same sequence, the figures for `O=C([C@H](O)c1cccc(-c2cccc(OC(F)(F)F)c2)c1)N1CCc2nc(C3(c4cccc(Cl)c4)CC3)[nH]c(=O)c2C1` [45-7] were < 0.05 µM and < 0.01 µM.

As for `O=C([C@H](O)c1cccc(-c2cccc(Cl)c2)c1)N1CCc2nc(C3(c4cccc(Cl)c4)CC3)[nH]c(=O)c2C1` [45-8], the concentration for half-maximal inhibition (IC50) under setting [1] was < 0.05 µM and the half-inhibitory concentration (IC50) under setting [2] was < 0.01 µM.

For `O=C([C@H](O)c1cccc(-c2cc(F)cc(Cl)c2)c1)N1CCc2nc(C3(c4cccc(Cl)c4)CC3)[nH]c(=O)c2C1` [45-9], the 50% inhibitory concentration (IC50) under setting [1] is < 0.05 µM. Regarding `O=C([C@H](O)c1cccc(-c2cc(Cl)cc(C(F)(F)F)c2)c1)N1CCc2nc(C3(c4cccc(Cl)c4)CC3)[nH]c(=O)c2C1` [45-10], the concentration for half-maximal inhibition (IC50) was < 0.05 µM under setting [1] and < 0.01 µM under setting [2].

As to `O=C([C@H](O)c1cccc(-c2cc(Cl)cc(OC(F)(F)F)c2)c1)N1CCc2nc(C3(c4cccc(Cl)c4)CC3)[nH]c(=O)c2C1` [45-11], the IC50 was < 0.05 µM under setting [1] and < 0.01 µM under setting [2]. Taken in the same sequence, the figures for `O=C(Cc1cccc(-c2cccc(OC(F)(F)F)c2)c1)N1CCc2nc(C3(c4cccc(Cl)c4)CC3)[nH]c(=O)c2C1` [45-12] were < 0.05 µM and < 0.01 µM. For `CC(C)(C)c1cccc(-c2cccc(CC(=O)N3CCc4nc(C5(c6cccc(Cl)c6)CC5)[nH]c(=O)c4C3)c2)c1` [45-13], in that order: < 0.05 µM and < 0.01 µM. For `CC(C)c1cncc(C2(c3nc4c(c(=O)[nH]3)CN(C(=O)[C@H](O)c3cccc(-c5ccc(C(C)(C)C)cc5)c3)CC4)CC2)c1` [47-1], in that order: < 0.05 µM and < 0.01 µM.

Take `CC(C)c1cncc(C2(c3nc4c(c(=O)[nH]3)CN(C(=O)[C@H](O)c3cccc(-c5ccc(C(F)(F)F)cc5)c3)CC4)CC2)c1` [47-2]: the half-maximal inhibitory concentration (IC50) reads like this: under setting [1], < 0.05 µM; under setting [2], < 0.01 µM. With `CC(C)c1cncc(C2(c3nc4c(c(=O)[nH]3)CN(C(=O)[C@H](O)c3cccc(-c5ccc(F)cc5)c3)CC4)CC2)c1` [47-3], the 50% inhibitory concentration (IC50) is < 0.05 µM under setting [1] and < 0.01 µM under setting [2]. Taken in the same sequence, the figures for `CC(C)c1cncc(C2(c3nc4c(c(=O)[nH]3)CN(C(=O)[C@H](O)c3cccc(-c5ccc(Cl)cc5)c3)CC4)CC2)c1` [47-4] were < 0.05 µM and < 0.01 µM. Taken in the same sequence, the figures for `CC(C)c1cncc(C2(c3nc4c(c(=O)[nH]3)CN(C(=O)[C@H](O)c3cccc(-c5ccc(C(F)(F)F)nc5)c3)CC4)CC2)c1` [47-5] were < 0.05 µM and < 0.01 µM. For `CC(C)c1cncc(C2(c3nc4c(c(=O)[nH]3)CN(C(=O)[C@H](O)c3cccc(-c5ccc(OC(F)(F)F)cc5)c3)CC4)CC2)c1` [47-6], in that order: < 0.05 µM and < 0.01 µM. For `O=C(C(O)c1cccc(-c2cccc(C(F)(F)F)c2)n1)N1CCc2nc(C3(c4ccccc4)CC3)[nH]c(=O)c2C1` (stereo not shown) [48-1], the IC50 under setting [1] is < 0.05 µM and the 50% inhibitory concentration (IC50) under setting [2] is < 0.01 µM. Regarding `O=C(C(O)c1cccc(-c2cccc(OC(F)(F)F)c2)n1)N1CCc2nc(C3(c4ccccc4)CC3)[nH]c(=O)c2C1` (stereo not shown) [48-2], the IC50 runs as follows: under setting [1], < 0.05 µM; under setting [2], < 0.01 µM.

With `O=C(C(O)c1cccc(-c2ccnc(C(F)(F)F)c2)n1)N1CCc2nc(C3(c4ccccc4)CC3)[nH]c(=O)c2C1` (stereo not shown) [48-3], the IC50 reads like this: under setting [1], < 0.05 µM; under setting [2], < 0.01 µM.

Regarding `O=C(C(O)c1cncc(-c2cccc(C(F)(F)F)c2)c1)N1CCc2nc(C3(c4ccccc4)CC3)[nH]c(=O)c2C1` (stereo not shown) [48-4], the half-inhibitory concentration (IC50) was < 0.05 µM under setting [1] and < 0.01 µM under setting [2]. For `O=C(C(O)c1cncc(-c2cccc(Cl)c2)c1)N1CCc2nc(C3(c4ccccc4)CC3)[nH]c(=O)c2C1` (stereo not shown) [48-5], the IC50 is < 0.05 µM under setting [1] and < 0.01 µM under setting [2]. Taken in the same sequence, the figures for `O=C(C(O)c1cccc(-c2cccc(C3CC3)c2)n1)N1CCc2nc(C3(c4ccccc4)CC3)[nH]c(=O)c2C1` (stereo not shown) [48-6] were < 0.05 µM and < 0.01 µM. Take `O=C(C(O)c1cncc(-c2ccnc(C(F)(F)F)c2)c1)N1CCc2nc(C3(c4ccccc4)CC3)[nH]c(=O)c2C1` (stereo not shown) [48-7]: under setting [1], the IC50 was < 0.05 µM. The same measure, in the same setting: as for `O=C(C(O)c1cccc(-c2cccc(Cl)c2)n1)N1CCc2nc(C3(c4ccccc4)CC3)[nH]c(=O)c2C1` (stereo not shown) [48-8], the figure is < 0.05 µM.

Consider `CC(C)(C)c1cccc(-c2cccc(C(O)C(=O)N3CCc4nc(C5(c6ccccc6)CC5)[nH]c(=O)c4C3)n2)c1` (stereo not shown) [48-9], for which the concentration for half-maximal inhibition (IC50) under setting [1] is < 0.05 µM. Consider `O=C(C(O)c1cccc(-c2cccc(F)c2)n1)N1CCc2nc(C3(c4ccccc4)CC3)[nH]c(=O)c2C1` (stereo not shown) [48-10], for which the IC50 under setting [1] was < 0.05 µM. On the same count and under the same terms, as for `O=C(C(O)c1cncc(-c2cccc(F)c2)c1)N1CCc2nc(C3(c4ccccc4)CC3)[nH]c(=O)c2C1` (stereo not shown) [48-11], the figure is < 0.05 µM. On to `O=C(C(O)c1cccc(-c2cnc3ccccc3c2)c1)N1CCCc2nc(C3(c4ccccc4)CC3)[nH]c(=O)c2C1` (stereo not shown) [49-1], for which the IC50 is, setting by setting: under setting [1], < 0.05 µM; under setting [2], < 0.01 µM. For `O=C(C(O)c1cccc(-c2cc(C(F)(F)F)cc(C(F)(F)F)c2)c1)N1CCCc2nc(C3(c4ccccc4)CC3)[nH]c(=O)c2C1` (stereo not shown) [49-2], in that order: < 0.05 µM and < 0.01 µM. Turning to `O=C(C(O)c1cccc(-c2ccc(Cl)cc2)c1)N1CCCc2nc(C3(c4ccccc4)CC3)[nH]c(=O)c2C1` (stereo not shown) [49-3], the half-inhibitory concentration (IC50) under setting [1] is < 0.05 µM and the IC50 under setting [2] is < 0.01 µM. In the case of `O=C(C(O)c1cccc(-c2cc(F)cc(Cl)c2)c1)N1CCCc2nc(C3(c4ccccc4)CC3)[nH]c(=O)c2C1` (stereo not shown) [49-4], the half-maximal inhibitory concentration (IC50) is < 0.05 µM under setting [1] and < 0.01 µM under setting [2].

As to `O=C(C(O)c1cccc(-c2ccnc(C(F)(F)F)c2)c1)N1CCCc2nc(C3(c4ccccc4)CC3)[nH]c(=O)c2C1` (stereo not shown) [49-5], the IC50 was < 0.05 µM under setting [1] and < 0.01 µM under setting [2]. Consider `O=C(C(O)c1cccc(-c2cccc(Cl)c2)c1)N1CCCc2nc(C3(c4ccccc4)CC3)[nH]c(=O)c2C1` (stereo not shown) [49-6], for which the IC50 was < 0.05 µM under setting [1] and < 0.01 µM under setting [2].
